In patent US9486506B2 (Novo Nordisk A/S, priority 2011, dated 2016):
Numbered stars: 1 amine (or outer) side, 2 acyl side, 3 side chain; on linkers, the order of the positions; unused ones are H or OH. Side chains are listed from the residue outwards. Peptide text beside a SMILES is read from it. * marks the point of attachment. C18 diacid = O=C(O)CCCCCCCCCCCCCCCCC(=O)*; C16 diacid = O=C(O)CCCCCCCCCCCCCCC(=O)*; γGlu = O=C(O)[C@H](CCC(=O)[*:2])N[*:1]; AEEA = NCCOCCOCC(=O)O

Molecular target: T1, glucagon receptor (Homo sapiens, UniProt P47871)
T1 construct: expressed in transfected cells
T1 sequence (P47871 26-477): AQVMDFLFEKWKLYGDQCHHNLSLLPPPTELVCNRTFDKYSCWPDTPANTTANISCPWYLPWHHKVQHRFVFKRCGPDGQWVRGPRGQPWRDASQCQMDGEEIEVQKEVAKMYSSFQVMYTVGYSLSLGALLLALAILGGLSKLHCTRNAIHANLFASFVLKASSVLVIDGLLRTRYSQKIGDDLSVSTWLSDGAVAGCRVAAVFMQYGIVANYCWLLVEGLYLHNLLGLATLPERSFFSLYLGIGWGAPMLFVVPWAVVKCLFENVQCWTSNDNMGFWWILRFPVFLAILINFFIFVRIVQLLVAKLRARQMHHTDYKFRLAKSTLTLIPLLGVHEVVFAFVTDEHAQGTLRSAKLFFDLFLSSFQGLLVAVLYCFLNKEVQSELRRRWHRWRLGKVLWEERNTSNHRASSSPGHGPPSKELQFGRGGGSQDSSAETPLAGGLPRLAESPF
Experiment: Assay (I) Glucagon activity (cAMP biosensor, FLIPR)
Type: cell-based

**Q.** How did the EC50 turn out when CC(C)C[C@H](NC(=O)[C@H](CC(=O)O)NC(=O)[C@H](CC(C)C)NC(=O)[C@H](Cc1ccc(O)cc1)NC(=O)[C@H](CCCNC(=N)N)NC(=O)[C@H](CO)NC(=O)[C@H](Cc1ccc(O)cc1)NC(=O)[C@H](CC(=O)O)NC(=O)[C@H](CO)NC(=O)[C@@H](NC(=O)[C@H](Cc1ccccc1)NC(=O)[C@@H](NC(=O)CNC(=O)[C@H](CCC(N)=O)NC(=O)[C@H](CO)NC(=O)[C@@H](N)Cc1c[nH]cn1)[C@@H](C)O)[C@@H](C)O)C(=O)N[C@@H](CCCNC(=N)N)C(=O)N[C@@H](CCCNC(=N)N)C(=O)N[C@@H](C)C(=O)N[C@@H](CCC(N)=O)C(=O)N[C@@H](CC(=O)O)C(=O)N[C@@H](Cc1ccccc1)C(=O)N[C@H](C(=O)N[C@@H](CCCCNC(=O)CC[C@H](NC(=O)CC[C@H](NC(=O)CC[C@H](NC(=O)CCCCCCCCCCCCCCC(=O)O)C(=O)O)C(=O)O)C(=O)O)C(=O)N[C@@H](Cc1c[nH]c2ccccc12)C(=O)N[C@@H](CC(C)C)C(=O)N[C@@H](CC(C)C)C(=O)N[C@@H](CO)C(=O)N[C@H](C(=O)O)[C@@H](C)O)C(C)C [Example 91, N^ε24-[(4S)-4-carboxy-4-[[(4S)-4-carboxy-4-[[(4S)-4-carboxy-4-(15-carboxypentadecanoylamino)butanoyl]amino]butanoyl]amino]butanoyl]-[Arg12,Leu16,Lys24,Leu27,Ser28]-Glucagon] (H-HSQGTFTSDYSRYLDLRRAQDFVK([γGlu-γGlu-γGlu-C16 diacid])WLLST-OH) was run?
**A.** The EC50 was 0.027 nM.

**Q.** With CC(C)C[C@H](NC(=O)[C@H](Cc1ccc(O)cc1)NC(=O)[C@H](CCCCN)NC(=O)[C@H](CO)NC(=O)[C@H](Cc1ccc(O)cc1)NC(=O)[C@H](CC(=O)O)NC(=O)[C@H](CO)NC(=O)[C@@H](NC(=O)[C@H](Cc1ccccc1)NC(=O)[C@@H](NC(=O)CNC(=O)[C@H](Cc1c[nH]cn1)NC(=O)[C@H](CO)NC(=O)[C@@H](N)Cc1c[nH]cn1)[C@@H](C)O)[C@@H](C)O)C(=O)N[C@@H](CC(=O)O)C(=O)N[C@@H](CO)C(=O)N[C@@H](CCCNC(=N)N)C(=O)N[C@@H](CCCNC(=N)N)C(=O)N[C@@H](C)C(=O)N[C@@H](CCC(N)=O)C(=O)N[C@@H](CC(=O)O)C(=O)N[C@@H](Cc1ccccc1)C(=O)N[C@H](C(=O)N[C@@H](CCCCNC(=O)CC[C@H](NC(=O)CC[C@H](NC(=O)COCCOCCNC(=O)COCCOCCNC(=O)CC[C@H](NC(=O)CCCCCCCCCCCCCCCCC(=O)O)C(=O)O)C(=O)O)C(=O)O)C(=O)N[C@@H](Cc1c[nH]c2ccccc12)C(=O)N[C@@H](CC(C)C)C(=O)N[C@@H](CC(C)C)C(=O)N[C@@H](CO)C(=O)N[C@H](C(=O)O)[C@@H](C)O)C(C)C [Example 2, N^ε24-[(4S)-4-carboxy-4-[[(4S)-4-carboxy-4-[[2-[2-[2-[[2-[2-[2-[[(4S)-4-carboxy-4-(17-carboxyheptadecanoylamino)butanoyl]amino]ethoxy]ethoxy]acetyl]amino]ethoxy]ethoxy]acetyl]amino]butanoyl]amino]butanoyl]-[His^3,Lys^24,Leu^27,Ser^28]-Glucagon] as the molecule, how does the EC50 read?
**A.** Its EC50 is 0.129 nM.

**Q.** CC(C)C[C@H](NC(=O)[C@H](CC(N)=O)NC(=O)[C@H](CC(C)C)NC(=O)[C@H](CC(C)C)NC(=O)[C@H](Cc1c[nH]c2ccccc12)NC(=O)[C@H](CCCCNC(=O)CC[C@H](NC(=O)COCCOCCNC(=O)COCCOCCNC(=O)CC[C@H](NC(=O)CCCCCCCCCCCCCCCCC(=O)O)C(=O)O)C(=O)O)NC(=O)[C@@H](NC(=O)[C@H](Cc1ccccc1)NC(=O)[C@H](CC(=O)O)NC(=O)[C@H](CCC(N)=O)NC(=O)[C@H](C)NC(=O)[C@H](CCCNC(=N)N)NC(=O)[C@H](CCCNC(=N)N)NC(=O)[C@H](CO)NC(=O)[C@H](CCC(=O)O)NC(=O)[C@H](CC(C)C)NC(=O)[C@H](Cc1ccc(O)cc1)NC(=O)[C@H](CCCCN)NC(=O)[C@H](CO)NC(=O)[C@H](Cc1ccc(O)cc1)NC(=O)[C@H](CC(=O)O)NC(=O)[C@H](CO)NC(=O)[C@@H](NC(=O)[C@H](Cc1ccccc1)NC(=O)[C@@H](NC(=O)CNC(=O)[C@H](CCC(N)=O)NC(=O)[C@H](CO)NC(=O)[C@@H](N)Cc1c[nH]cn1)[C@@H](C)O)[C@@H](C)O)C(C)C)C(=O)O [Example 34, N^ε24-[(4S)-4-carboxy-4-[[2-[2-[2-[[2-[2-[2-[[(4S)-4-carboxy-4-(17-carboxyheptadecanoylamino)butanoyl]amino]ethoxy]ethoxy]acetyl]amino]ethoxy]ethoxy]acetyl]amino]butanoyl]-[Glu15,Lys24,Leu27,Leu29]-Glucagon] was tested. Which EC50 did it give?
**A.** Its EC50 is 1.9 nM.

**Q.** With CC[C@H](C)[C@H](NC(=O)[C@H](CC(C)C)NC(=O)[C@H](CC(C)C)NC(=O)[C@H](Cc1c[nH]c2ccccc12)NC(=O)[C@H](CCCCNC(=O)CC[C@H](NC(=O)CC[C@H](NC(=O)COCCOCCNC(=O)COCCOCCNC(=O)CC[C@H](NC(=O)CCCCCCCCCCCCCCCCC(=O)O)C(=O)O)C(=O)O)C(=O)O)NC(=O)[C@@H](NC(=O)[C@H](Cc1ccccc1)NC(=O)[C@H](CC(=O)O)NC(=O)[C@H](CCC(N)=O)NC(=O)[C@H](C)NC(=O)[C@H](CCCNC(=N)N)NC(=O)[C@H](CCCNC(=N)N)NC(=O)[C@H](CC(C)C)NC(=O)[C@H](CC(=O)O)NC(=O)[C@H](CC(C)C)NC(=O)[C@H](Cc1ccc(O)cc1)NC(=O)[C@H](CCCNC(=N)N)NC(=O)[C@H](CO)NC(=O)[C@H](Cc1ccc(O)cc1)NC(=O)[C@H](CC(=O)O)NC(=O)[C@H](CO)NC(=O)[C@@H](NC(=O)[C@H](Cc1ccccc1)NC(=O)[C@@H](NC(=O)CNC(=O)[C@H](CCC(N)=O)NC(=O)[C@H](CO)NC(=O)[C@@H](N)Cc1c[nH]cn1)[C@@H](C)O)[C@@H](C)O)C(C)C)C(=O)N[C@H](C(=O)O)[C@@H](C)O [Example 18, N^ε24-[(4S)-4-carboxy-4-[[(4S)-4-carboxy-4-[[2-[2-[2-[[2-[2-[2-[[(4S)-4-carboxy-4-(17-carboxyheptadecanoylamino)butanoyl]amino]ethoxy]ethoxy]acetyl]amino]ethoxy]ethoxy]acetyl]amino]butanoyl]amino]butanoyl]-[Arg^12,Leu^16,Lys^24,Leu^27,Ile^28]-Glucagon] (H-HSQGTFTSDYSRYLDLRRAQDFVK([γGlu-γGlu-AEEA-AEEA-γGlu-C18 diacid])WLLIT-OH) as the molecule, how does the EC50 read?
**A.** Its EC50 is 1.67 nM.

**Q.** Which EC50 does the source give for CC(C)C[C@H](NC(=O)[C@H](CC(N)=O)NC(=O)[C@H](CC(C)C)NC(=O)[C@H](CC(C)C)NC(=O)[C@H](Cc1c[nH]c2ccccc12)NC(=O)[C@H](CCCCNC(=O)CC[C@H](NC(=O)COCCOCCNC(=O)COCCOCCNC(=O)CC[C@H](NC(=O)CCCCCCCCCCCCCCCCC(=O)O)C(=O)O)C(=O)O)NC(=O)[C@@H](NC(=O)[C@H](Cc1ccccc1)NC(=O)[C@H](CCC(=O)O)NC(=O)[C@H](CCC(N)=O)NC(=O)[C@H](C)NC(=O)[C@H](CCCNC(=N)N)NC(=O)[C@H](CCCNC(=N)N)NC(=O)[C@@H](NC(=O)[C@H](CC(=O)O)NC(=O)[C@H](CC(C)C)NC(=O)[C@H](Cc1ccc(O)cc1)NC(=O)[C@H](CCCCN)NC(=O)[C@H](CO)NC(=O)[C@H](Cc1ccc(O)cc1)NC(=O)[C@H](CC(=O)O)NC(=O)[C@H](CO)NC(=O)[C@@H](NC(=O)[C@H](Cc1ccccc1)NC(=O)[C@@H](NC(=O)CNC(=O)[C@H](CCC(N)=O)NC(=O)[C@H](CO)NC(=O)[C@@H](N)Cc1c[nH]cn1)[C@@H](C)O)[C@@H](C)O)[C@@H](C)O)C(C)C)C(=O)O [Example 37, N^ε24-[(4S)-4-carboxy-4-[[2-[2-[2-[[2-[2-[2-[[(4S)-4-carboxy-4-(17-carboxyheptadecanoylamino)butanoyl]amino]ethoxy]ethoxy]acetyl]amino]ethoxy]ethoxy]acetyl]amino]butanoyl]-[Thr16,Glu21,Lys24,Leu27,Leu29]-Glucagon] (H-HSQGTFTSDYSKYLDTRRAQEFVK([γGlu-AEEA-AEEA-γGlu-C18 diacid])WLLNL-OH) here?
**A.** Its EC50 is 0.183 nM.
